Results published in US20170184612A1, “USE OF LEUKOCYTES AND NOVEL BIOMARKERS IN THE DIAGNOSIS, CONFIRMATION, AND TREATMENT OF A NEUROLOGICAL DISORDER” (The Trustees of Columbia University in the City of New York, priority 2014, published 2017).

Legend:
Type in all cases: cell-based, mouse
[1] = tested on: VM DA (TH+) neurons; assay: Antigen processing and presentation, […]-MHC-I immunolabel; conditions: IFN-γ with extracellular SIINFEKL, positive control
Description: Following exposure of SN neuronal cultures to OVA or vehicle for 7 days, neurons were exposed to IFN-γ or saline for 72 h (note that these cultures were never exposed to […] (SEQ ID NO: 9)). The cultures were then double immunolabeled for TH and an antibody that recognizes only the MHC-I complex when is occupied by […] (SEQ ID NO: 9) ([…]-MHC-I). Occasional label of astrocytes, but not neurons, for […]-MHC-I was observed when the cultures were exposed to the vehicle, IFN-γ, or OVA alone (FIG. 5A). […] The results herein indicate that OVA had been processed to […] (SEQ ID NO: 9) within these mixed neuron/astrocyte cultures and loaded into the MHC-I groove within neuronal cytosol, and that the resulting complex was presented on the neuronal plasma membrane.
IFN-γ (R&D Systems) was used at a range of non-toxic concentrations for neurons or OT-1 cells (10 μg/ml-100 ng/ml, 72h). […]
Images were captured using a Leica SP5 microscope system. There was no fluorescence bleed-through of secondary antibodies under the conditions used. […]
In order to assess the proportion of TH^+ and MAP-2^+ neurons that expressed MHC-I^+, first TH^+ and MAP-2^+ neurons were counted in 24 fields surrounding the border of the well at 20× magnification. The number of TH^+ or MAP-2^+ neurons with intact soma and two or more neurites equal to or greater than the diameter of the cell soma was counted. […]

[2] = tested on: VM DA (TH+) neurons; assay: OT-1 T cell cytotoxicity (killing) assay on VM DA neurons; conditions: combination of CTLs, IFN-γ and SIINFEKL
Description: OT-1 CD8^+ cell proliferation was assessed by BrdU incorporation. For OT-1 T cell cytotoxicity assays, DC and VM (from C57BL/6 and 56.129P2-B2mtm1Unc/J mice) cell cultures were incubated with neuronal medium or neuronal medium containing 100 ng/ml of IFN-γ (R&D Systems). Neurons were loaded with or without […] (SEQ ID NO: 9) peptide (1 μM), and, subsequently in vitro activated OT-1 cells were added at a density of 100,000 cells/well and co-incubated for 24 h.
We used the same conditions for VM cell cultures with microglial medium previously stimulated with LPS, NM or α-syn instead of IFN-γ. Neurons were pre-incubated with IFN-γ and […] (SEQ ID NO: 9) peptide as above, and then with: 1) a pan-caspase general inhibitor (Z-VAD-FMK, 20 μM, 24h, IMGENEX); 2) a specific granzyme/perforin inhibitor (concanamycin A, 100 nM, 24h, Sigma Aldrich); 3) a specific Fas/FasL antagonist (Kp7-6, 1 mM, 24h, EMD Biosciences) and 4) concanamycin A and Kp7-6 together. OT-1 cells were then added to the culture (100,000 cells/well) and maintained for 24 h.
Following immunocytochemical staining of VM neurons, we assessed the proportion of surviving DA (TH^+) and non-DA cells (MAP-2^+, TH^−). Total numbers of TH^+ and MAP-2^+ neurons were counted in 24 fields surrounding the border of the well at 20× magnification. The number of surviving TH+ neurons with an intact soma and two or more neurites equal to or greater than the diameter of the cell soma was counted and normalized to the number in untreated cultures.

[3] = tested on: OT-1 CTL cells; assay: OT-1 CD8+ cell proliferation by BrdU incorporation; conditions: combination with IFN-γ; DC and VM neuronal cultures
Description: The capacity of CTLs to respond to MHC-I induced SN neurons was examined first, by following CTL proliferation using 5-bromo-2-deoxyuridine (BrdU) incorporation.
Primary DCs were obtained from mouse […] femur hematopoietic stem cells. In brief, mouse femur hematopoietic stem cells from bone marrow were harvested from the hind legs of 8 to 12-week old male wild-type C57BL/6J and plated at 2×10^6 cells/ml density in DC culture medium (DMEM supplemented with 10% FBS, lx non-essential amino acids, 2 mM L-glutamine, 1 mM sodium pyruvate and 20 mM HEPES). For differentiation to dendritic cells, 10 ng/ml of recombinant mouse GM-CSF was added to media. Cells were fed every 2 days with fresh DMEM containing GM-CSF, and the cultures were trypsinized after 8 days and plated at 4×10^5 cells/cm^2 density to be used for experiments the following day (Tallóczy et al., 2008). OT-1 CD8^+ and OT-2 CD4^+ T cell lines, a kind gift from Dr. Raphael Clynes (Department of Medicine and Microbiology, Columbia University Medical Center), express a transgene encoding T cell receptor that specifically recognizes […] (SEQ ID NO: 9) peptide (derived from OVA) bound to MHC-I H-2Kb or to MHC-II I-A/I-E (Hogquist et al., 1994). Activated primary OT-1 and OT-2 T cells were generated by the addition of […] […]
OT-1 CD8^+ cell proliferation was assessed by BrdU incorporation. […]

Q: For “SIINFEKL [8 amino acid peptide derived from OVA]”, which “TH+ neurons with SIINFEKL-MHC-I immunolabel” value [1] is on record?
A: Its value is ~70%.

Q: And the neuronal death ([2]; MHC-I null (KO) SN neurons)?
A: The neuronal death was “no neuronal death was triggered”.

Q: What about the “TH+ neurons killed” value ([2]; wild type neurons) of the same sequence?
A: Its value is 55%.

Q: What about the CTL proliferation [3] of the same sequence?
A: Its CTL proliferation is “induced similar CTL proliferation by both DC and VM neuronal cultures”.
